# Where two headings read alike, the source gives them in different places.
# Tests used:
# Assay in all cases: KiNativ, MOLM13 live cells
# Format in all cases: cell-based
# PIK3CB = PIK3CB (Homo sapiens, UniProt P42338); conditions: MOLM-13; 100 nM, 2 hours; ATP; read-out: Inhibition vs DMSO
# Protocol: (§1) Samples were analyzed by KiNativ in situ kinase profiling by ActivX Biosciences.
# PFTAIRE2 = PFTAIRE2 (Homo sapiens, UniProt Q96Q40); conditions: MOLM-13; 100 nM, 2 hours; Lys2; read-out: Inhibition vs DMSO
# Protocol: as §1
# YANK3 = YANK3 (Homo sapiens, UniProt Q86UX6); conditions: MOLM-13; 100 nM, 2 hours; Lys2; read-out: Inhibition vs DMSO
# Protocol: as §1
# MAP3K5 = MAP3K5 (Homo sapiens, UniProt Q99683); conditions: MOLM-13; 100 nM, 2 hours; Lys2; read-out: Inhibition vs DMSO
# Protocol: as §1
# ATR = ATR (Homo sapiens, UniProt Q13535); conditions: MOLM-13; 100 nM, 2 hours; ATP; read-out: Inhibition vs DMSO
# Protocol: as §1
# PAK2 = PAK2 (Homo sapiens, UniProt Q13177); conditions: MOLM-13, 2 h, 100 nM
# Protocol: as §1
# SYK = SYK (Homo sapiens, UniProt P43405); conditions: 100 nM, 2 hours
# Protocol: as §1
# CaMK1d = CaMK1d (Homo sapiens, UniProt Q8IU85); conditions: MOLM-13; 100 nM, 2 hours; Lys1; read-out: Inhibition vs DMSO
# Protocol: as §1
# SLK = SLK (Homo sapiens, UniProt Q9H2G2); conditions: MOLM-13; 100 nM, 2 hours; Lys2; read-out: Inhibition vs DMSO
# Protocol: as §1
# LYN = LYN (Homo sapiens, UniProt P07948); conditions: MOLM-13; 100 nM, 2 hours; Activation Loop; read-out: Inhibition vs DMSO
# Protocol: as §1
# MAP2K4 = biological target: T1, MAP2K4 (Homo sapiens, UniProt P45985); conditions: MOLM-13, 2 h, 100 nM
# T1 sequence (P45985 1-399): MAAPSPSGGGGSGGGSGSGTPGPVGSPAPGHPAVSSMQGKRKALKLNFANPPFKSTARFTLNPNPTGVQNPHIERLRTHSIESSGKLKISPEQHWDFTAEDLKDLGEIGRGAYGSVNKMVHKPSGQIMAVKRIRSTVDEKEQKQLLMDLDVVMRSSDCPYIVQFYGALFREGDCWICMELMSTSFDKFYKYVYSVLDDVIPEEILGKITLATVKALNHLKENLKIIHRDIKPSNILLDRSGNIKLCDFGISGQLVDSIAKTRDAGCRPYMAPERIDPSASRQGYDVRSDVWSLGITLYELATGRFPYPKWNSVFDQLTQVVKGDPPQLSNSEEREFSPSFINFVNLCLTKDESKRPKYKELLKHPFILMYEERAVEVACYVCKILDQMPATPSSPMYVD
# Protocol: as §1
# NEK1 = NEK1 (Homo sapiens, UniProt Q96PY6); conditions: MOLM-13; 100 nM, 2 hours; Lys2; read-out: Inhibition vs DMSO
# Protocol: as §1
# FAM20B = FAM20B (Homo sapiens, UniProt O75063); conditions: MOLM-13; 100 nM, 2 hours; ATP; read-out: Inhibition vs DMSO
# Protocol: as §1
# p70S6K = p70S6K (Homo sapiens, UniProt P23443); conditions: MOLM-13; 100 nM, 2 hours; Lys2; read-out: Inhibition vs DMSO
# Protocol: as §1
# STLK5 = biological target: T2, STLK5 (Homo sapiens, UniProt Q7RTN6); conditions: MOLM-13, 2 h, 100 nM
# T2 sequence (Q7RTN6 1-431): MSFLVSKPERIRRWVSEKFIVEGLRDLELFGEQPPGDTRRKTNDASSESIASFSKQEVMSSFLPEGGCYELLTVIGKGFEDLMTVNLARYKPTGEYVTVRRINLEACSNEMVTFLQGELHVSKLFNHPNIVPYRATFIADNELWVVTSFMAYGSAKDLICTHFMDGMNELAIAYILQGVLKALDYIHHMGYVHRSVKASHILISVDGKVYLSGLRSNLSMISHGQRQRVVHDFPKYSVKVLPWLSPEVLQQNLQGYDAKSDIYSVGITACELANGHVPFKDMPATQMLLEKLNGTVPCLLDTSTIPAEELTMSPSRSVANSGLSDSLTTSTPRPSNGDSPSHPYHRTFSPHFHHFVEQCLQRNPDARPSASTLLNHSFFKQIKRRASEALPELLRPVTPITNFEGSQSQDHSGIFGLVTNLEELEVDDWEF
# Protocol: as §1
# PIK3CG = PIK3CG (Homo sapiens, UniProt P48736); conditions: MOLM-13; 100 nM, 2 hours; ATP; read-out: Inhibition vs DMSO
# Protocol: as §1
# MAP2K7 = MAP2K7 (Homo sapiens, UniProt O14733); conditions: 100 nM, 2 hours; Lys2
# Protocol: as §1
# TAK1 = TAK1 (Homo sapiens, UniProt O43318); conditions: MOLM-13; 100 nM, 2 hours; Lys2; read-out: Inhibition vs DMSO
# Protocol: as §1
# ARAF = ARAF (Homo sapiens, UniProt P10398); conditions: MOLM-13; 100 nM, 2 hours; Lys2; read-out: Inhibition vs DMSO
# Protocol: as §1
# MSK1 domain1 = biological target: T3, MSK1 domain1 (Homo sapiens, UniProt O75582); conditions: MOLM-13; 100 nM, 2 hours; Lys2; read-out: Inhibition vs DMSO
# T3 construct: MSK1 domain1
# Protocol: as §1
# NLK = NLK (Homo sapiens, UniProt Q9UBE8); conditions: MOLM-13; 100 nM, 2 hours; Lys2; read-out: Inhibition vs DMSO
# Protocol: as §1
# MAP4K5 = MAP4K5 (Homo sapiens, UniProt Q9Y4K4); conditions: MOLM-13, 2 h, 100 nM
# Protocol: as §1
# [1] = Lys1, read-out: Inhibition vs DMSO
# [2] = Activation Loop, read-out: Inhibition vs DMSO
# [3] = Lys2, read-out: Inhibition vs DMSO
# Sequence of PAK2 (Q13177 whole entry): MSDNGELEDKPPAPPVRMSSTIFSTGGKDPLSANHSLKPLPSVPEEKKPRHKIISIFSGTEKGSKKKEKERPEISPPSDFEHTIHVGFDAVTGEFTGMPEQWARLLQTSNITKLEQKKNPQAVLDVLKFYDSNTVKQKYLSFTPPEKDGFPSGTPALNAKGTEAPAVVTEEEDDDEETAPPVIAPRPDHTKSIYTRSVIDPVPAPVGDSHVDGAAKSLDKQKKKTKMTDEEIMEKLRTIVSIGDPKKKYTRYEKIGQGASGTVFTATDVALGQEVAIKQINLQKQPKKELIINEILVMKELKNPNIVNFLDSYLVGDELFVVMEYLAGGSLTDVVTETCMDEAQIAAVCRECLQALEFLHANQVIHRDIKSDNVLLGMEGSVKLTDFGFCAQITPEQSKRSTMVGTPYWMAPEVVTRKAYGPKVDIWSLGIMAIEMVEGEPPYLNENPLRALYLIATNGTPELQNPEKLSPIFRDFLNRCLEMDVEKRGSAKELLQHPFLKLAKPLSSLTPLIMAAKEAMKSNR
# Sequence of MAP4K5 (Q9Y4K4 whole entry): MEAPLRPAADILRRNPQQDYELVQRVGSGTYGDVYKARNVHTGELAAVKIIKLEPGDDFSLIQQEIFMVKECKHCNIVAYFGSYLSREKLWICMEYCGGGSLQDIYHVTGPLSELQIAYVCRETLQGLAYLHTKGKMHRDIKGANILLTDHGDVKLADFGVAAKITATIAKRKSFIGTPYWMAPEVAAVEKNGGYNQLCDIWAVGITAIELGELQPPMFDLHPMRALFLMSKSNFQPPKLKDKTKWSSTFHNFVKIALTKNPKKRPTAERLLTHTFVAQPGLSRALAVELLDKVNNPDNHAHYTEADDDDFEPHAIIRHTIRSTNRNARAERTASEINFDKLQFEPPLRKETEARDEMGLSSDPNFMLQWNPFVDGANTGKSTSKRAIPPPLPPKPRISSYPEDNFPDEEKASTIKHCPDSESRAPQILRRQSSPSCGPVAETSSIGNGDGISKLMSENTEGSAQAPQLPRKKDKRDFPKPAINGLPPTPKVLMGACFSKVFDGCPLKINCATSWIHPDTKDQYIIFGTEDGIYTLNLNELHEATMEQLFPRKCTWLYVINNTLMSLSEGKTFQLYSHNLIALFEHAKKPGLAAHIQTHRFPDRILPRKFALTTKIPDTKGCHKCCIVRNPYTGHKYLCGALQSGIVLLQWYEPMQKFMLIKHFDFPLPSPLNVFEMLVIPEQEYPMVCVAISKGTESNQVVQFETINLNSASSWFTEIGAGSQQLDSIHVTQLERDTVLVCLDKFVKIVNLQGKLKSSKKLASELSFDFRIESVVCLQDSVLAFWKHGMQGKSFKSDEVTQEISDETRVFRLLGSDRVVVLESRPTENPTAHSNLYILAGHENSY
# Sequence of MAP3K5 (Q99683 whole entry): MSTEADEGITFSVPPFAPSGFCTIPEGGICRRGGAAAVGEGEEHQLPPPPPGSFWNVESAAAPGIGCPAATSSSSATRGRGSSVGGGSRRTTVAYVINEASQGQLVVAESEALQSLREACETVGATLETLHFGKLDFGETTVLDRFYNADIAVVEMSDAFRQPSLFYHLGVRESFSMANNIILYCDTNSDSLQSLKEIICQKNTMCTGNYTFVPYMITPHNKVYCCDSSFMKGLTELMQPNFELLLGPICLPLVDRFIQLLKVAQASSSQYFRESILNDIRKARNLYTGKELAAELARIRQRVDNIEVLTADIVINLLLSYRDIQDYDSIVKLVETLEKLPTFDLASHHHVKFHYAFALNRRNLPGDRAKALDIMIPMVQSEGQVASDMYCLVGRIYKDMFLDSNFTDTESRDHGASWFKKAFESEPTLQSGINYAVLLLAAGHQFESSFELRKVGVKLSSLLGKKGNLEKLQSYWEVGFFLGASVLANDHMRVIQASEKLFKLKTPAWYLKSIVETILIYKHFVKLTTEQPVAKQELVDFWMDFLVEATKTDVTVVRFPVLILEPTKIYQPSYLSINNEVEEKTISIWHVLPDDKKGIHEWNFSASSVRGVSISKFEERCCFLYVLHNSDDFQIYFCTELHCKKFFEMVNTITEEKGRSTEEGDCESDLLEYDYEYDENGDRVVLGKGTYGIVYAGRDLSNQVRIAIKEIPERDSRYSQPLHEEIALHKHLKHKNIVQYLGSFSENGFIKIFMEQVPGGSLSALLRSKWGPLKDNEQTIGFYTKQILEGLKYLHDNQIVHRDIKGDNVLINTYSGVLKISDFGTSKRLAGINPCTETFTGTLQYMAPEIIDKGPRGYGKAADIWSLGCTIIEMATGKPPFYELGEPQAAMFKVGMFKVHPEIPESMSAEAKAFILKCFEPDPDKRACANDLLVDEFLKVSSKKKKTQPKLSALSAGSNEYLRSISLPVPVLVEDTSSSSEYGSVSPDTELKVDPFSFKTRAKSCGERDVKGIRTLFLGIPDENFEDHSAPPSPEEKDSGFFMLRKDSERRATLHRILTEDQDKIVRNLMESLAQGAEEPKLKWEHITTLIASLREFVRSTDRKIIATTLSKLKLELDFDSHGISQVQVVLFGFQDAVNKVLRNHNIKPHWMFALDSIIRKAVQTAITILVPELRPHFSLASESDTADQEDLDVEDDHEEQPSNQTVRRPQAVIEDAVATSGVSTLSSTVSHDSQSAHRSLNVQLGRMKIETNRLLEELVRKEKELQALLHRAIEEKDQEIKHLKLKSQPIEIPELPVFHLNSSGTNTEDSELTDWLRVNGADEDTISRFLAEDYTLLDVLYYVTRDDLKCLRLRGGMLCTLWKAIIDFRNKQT
# Sequence of p70S6K (P23443 whole entry): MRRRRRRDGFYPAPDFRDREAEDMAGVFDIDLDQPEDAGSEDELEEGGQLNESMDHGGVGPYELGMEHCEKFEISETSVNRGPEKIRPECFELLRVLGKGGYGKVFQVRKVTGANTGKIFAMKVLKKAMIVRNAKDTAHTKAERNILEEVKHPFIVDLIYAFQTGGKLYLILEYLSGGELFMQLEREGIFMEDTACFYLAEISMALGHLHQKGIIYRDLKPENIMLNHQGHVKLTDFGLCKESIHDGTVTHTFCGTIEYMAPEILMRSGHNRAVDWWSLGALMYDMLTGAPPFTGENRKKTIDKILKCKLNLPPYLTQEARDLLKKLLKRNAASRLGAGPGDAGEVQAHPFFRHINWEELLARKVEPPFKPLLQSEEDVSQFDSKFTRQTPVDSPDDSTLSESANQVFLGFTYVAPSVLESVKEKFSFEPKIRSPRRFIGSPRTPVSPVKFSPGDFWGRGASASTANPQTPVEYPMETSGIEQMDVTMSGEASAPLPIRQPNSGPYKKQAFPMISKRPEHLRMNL
# Sequence of FAM20B (O75063 whole entry): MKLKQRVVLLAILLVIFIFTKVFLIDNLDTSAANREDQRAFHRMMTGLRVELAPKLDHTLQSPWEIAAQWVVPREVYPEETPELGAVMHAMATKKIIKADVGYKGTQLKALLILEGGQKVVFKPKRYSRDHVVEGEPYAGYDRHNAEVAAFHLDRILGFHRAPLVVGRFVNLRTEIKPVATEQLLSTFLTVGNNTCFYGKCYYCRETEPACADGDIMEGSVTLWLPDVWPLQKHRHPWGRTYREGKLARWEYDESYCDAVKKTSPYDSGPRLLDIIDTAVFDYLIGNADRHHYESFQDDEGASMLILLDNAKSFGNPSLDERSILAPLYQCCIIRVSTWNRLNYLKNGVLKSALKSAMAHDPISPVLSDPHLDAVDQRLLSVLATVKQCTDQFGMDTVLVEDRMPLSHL
# Sequence of YANK3 (Q86UX6 whole entry): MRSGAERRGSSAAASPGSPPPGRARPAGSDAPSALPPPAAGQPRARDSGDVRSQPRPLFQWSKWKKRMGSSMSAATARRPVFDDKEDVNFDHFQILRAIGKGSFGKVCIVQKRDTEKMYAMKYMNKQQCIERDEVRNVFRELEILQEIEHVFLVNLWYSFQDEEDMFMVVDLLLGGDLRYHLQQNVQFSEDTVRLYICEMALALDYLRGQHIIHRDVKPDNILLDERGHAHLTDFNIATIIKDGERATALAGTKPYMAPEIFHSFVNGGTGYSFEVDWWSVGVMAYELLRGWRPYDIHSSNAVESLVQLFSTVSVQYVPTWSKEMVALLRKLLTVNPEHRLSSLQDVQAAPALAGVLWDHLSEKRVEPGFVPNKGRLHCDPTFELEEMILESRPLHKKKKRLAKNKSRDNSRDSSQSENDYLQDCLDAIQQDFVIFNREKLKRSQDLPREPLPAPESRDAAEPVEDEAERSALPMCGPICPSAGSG
# Sequence of CaMK1d (Q8IU85 whole entry): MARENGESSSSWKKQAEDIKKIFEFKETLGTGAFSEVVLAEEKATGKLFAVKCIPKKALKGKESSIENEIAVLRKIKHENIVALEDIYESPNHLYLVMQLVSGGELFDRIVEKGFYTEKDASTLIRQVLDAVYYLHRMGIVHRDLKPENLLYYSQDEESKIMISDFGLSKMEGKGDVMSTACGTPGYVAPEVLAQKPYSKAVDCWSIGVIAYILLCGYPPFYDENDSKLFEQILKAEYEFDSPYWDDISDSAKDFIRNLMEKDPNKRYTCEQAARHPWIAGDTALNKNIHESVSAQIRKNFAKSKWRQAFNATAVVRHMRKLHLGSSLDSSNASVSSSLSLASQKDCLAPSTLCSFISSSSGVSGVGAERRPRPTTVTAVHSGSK
# Sequence of PFTAIRE2 (Q96Q40 whole entry): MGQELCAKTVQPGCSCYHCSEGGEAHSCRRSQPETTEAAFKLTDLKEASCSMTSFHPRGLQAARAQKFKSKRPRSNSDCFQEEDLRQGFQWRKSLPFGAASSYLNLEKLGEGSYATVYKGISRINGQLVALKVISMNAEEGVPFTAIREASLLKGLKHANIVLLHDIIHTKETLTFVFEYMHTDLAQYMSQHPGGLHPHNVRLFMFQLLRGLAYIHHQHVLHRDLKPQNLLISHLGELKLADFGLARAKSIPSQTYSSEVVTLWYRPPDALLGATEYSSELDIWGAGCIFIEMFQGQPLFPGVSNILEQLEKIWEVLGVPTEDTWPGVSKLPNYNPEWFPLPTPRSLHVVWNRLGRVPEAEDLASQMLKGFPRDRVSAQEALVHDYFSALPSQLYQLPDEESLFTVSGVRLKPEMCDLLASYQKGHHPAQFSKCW
compound,measurement,setting,value
CN1CCN(Cc2ccc(Nc3ncc(Cl)c(Nc4ccccc4S(=O)(=O)N(C)C)n3)cc2)CC1 [TP-0903],inhibition at 0.1 µM,PIK3CB,-0.9%
same,inhibition at 0.1 µM,PFTAIRE2,16.4%
same,inhibition at 0.1 µM,YANK3,-4.7%
same,inhibition at 0.1 µM,MAP3K5,0.5%
same,inhibition at 0.1 µM,ATR,7.6%
same,inhibition at 0.1 µM,PAK2; [1],-46.5%
same,inhibition at 0.1 µM,"PAK2; Other, read-out: Inhibition vs DMSO",-26.6%
same,Inhibition vs DMSO,"SYK; Activation Loop, AQTHGKWPVK",27.9%
same,Inhibition vs DMSO,"SYK; Activation Loop, ISDFGLSKALR",17.6%
same,Inhibition vs DMSO,SYK; Lys1,8.1%
same,inhibition at 0.1 µM,CaMK1d,23.2%
same,inhibition at 0.1 µM,SLK,72.2%
same,inhibition at 0.1 µM,LYN,58.8%
same,inhibition at 0.1 µM,MAP2K4; [2],4.3%
same,inhibition at 0.1 µM,MAP2K4; [1],-38.6%
same,inhibition at 0.1 µM,MAP2K4; [3],4.1%
same,inhibition at 0.1 µM,NEK1,-21.7%
same,inhibition at 0.1 µM,FAM20B,-5%
same,inhibition at 0.1 µM,p70S6K,-32.8%
same,inhibition at 0.1 µM,STLK5; [2],4.2%
same,inhibition at 0.1 µM,STLK5; [3],-19%
same,inhibition at 0.1 µM,PIK3CG,-8.5%
same,Inhibition vs DMSO,MAP2K7,-0.0231%
same,inhibition at 0.1 µM,TAK1,-2.8%
same,inhibition at 0.1 µM,ARAF,-2.9%
same,inhibition at 0.1 µM,MSK1 domain1,-10.3%
same,inhibition at 0.1 µM,NLK,-30.4%
same,inhibition at 0.1 µM,MAP4K5; [1],54.8%
same,inhibition at 0.1 µM,MAP4K5; [3],42.9%

# From paper PMC7714403 (JCI Insight, 2020)
